From US10016383B2, “Inhibitors of metallo-β-lactamase-enzymes” (McMaster University, priority 2013, dated 2018)
Read-outs that look alike come from different tables or passages of the source.

Tests used:
K. pneumoniae N11-2218 [1] = test: Mouse systemic infection, organ bacterial load; type: in vivo, CD1 mice; conditions: meropenem alone, doses below 50 mg/kg
From the text: (§1) All animals were housed in specific pathogen-free units in the Central Animal Facility at McMaster University. All experimental protocols were approved by, and performed in accordance with the McMaster Animal Research Ethics Board. Female CD1 mice were purchased from Charles River.
(§2) Mice were infected intraperitoneally (ip) with a dose of 2×10^6 colony forming units (cfu) of Klebsiella pneumoniae N11-2218 for all organ bacterial load experiments, or with a dose of 5×10^7cfu for all survival experiments. For all organ bacterial load experiments, mice were euthanized 48 hours post infection, and spleen and liver were harvested. Organs were placed into 1 mL sterile PBS on ice, and then homogenized (Mixer Mill 400; Retsch). Organ homogenates were then serially diluted in PBS, and plated on Brilliant Green agar (Oxoid) for cfu enumeration. For survival curves, mice were monitored for endpoint. For all experiments, mice were treated 30 minutes post infection with a specified subcutaneous dose of either PBS, meropenem, AM-A inhibitor, or a combination of both antibiotic and inhibitor.

K. pneumoniae N11-2218 [2] = test: Mouse lethal systemic infection, survival; type: in vivo, CD1 mice; conditions: monotherapy (alone)
From the text: as §1, §2

K. pneumoniae N11-2218 [3] = test: Microdilution checkerboard / MIC; type: cell-based, Klebsiella pneumoniae; conditions: meropenem alone
Procedure: FIC values were determined by standard methods^27 setting up checkerboards with 8 concentrations of each meropenem and AM-A in serial ½ dilutions. Experiments were done in duplicate and the mean used for calculation. The MIC for each compound was the lowest concentration of compound showing no growth. The FIC for each compound was calculated as the concentration of the compound in the presence of co-compound for a well showing no growth, divided by the MIC for that compound. The FIC index is the sum of the two FICs.

[4] = rats, i.v.; cited from earlier work

**Q.** For `C[C@@H](O)[C@H]1C(=O)N2C(C(=O)O)=C(S[C@@H]3CN[C@H](C(=O)N(C)C)C3)[C@H](C)[C@H]12` [meropenem, reference compound], which “response of infection to meropenem monotherapy” value (K. pneumoniae N11-2218 [1]) is on record?
**A.** Its value is “resistant”.

**Q.** And the “prevention of lethal infection” value (K. pneumoniae N11-2218 [2])?
**A.** Its value is “unable to prevent lethal infection”.

**Q.** And the MIC (K. pneumoniae N11-2218 [3]; Klebsiella pneumoniae, N112218, read-out: MIC)?
**A.** The MIC was 32 µg/mL.

**Q.** What about the MIC (K. pneumoniae N11-2218 [3]) of the same compound?
**A.** The MIC was 32 µg/mL.

**Q.** Which LD50 [4] does the source give for `O=C(O)CN[C@H](CN[C@@H](CC(=O)O)C(=O)O)C(=O)O` [AM-B, aspergillomarasime B] here?
**A.** Its LD50 is 660 mg/kg.
